PubChem BioAssay (NCI)
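These data come from cells grown in 96-well plates and exposed to compound for 48 hours at five concentrations. GI50 = concentration required for 50% inhibition of growth. TGI: total growth inhibition.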

Key:
Assay in all cases: inhibition of tumour cell growth, NCI panel, 48 h
[1] = tested on: A549 NSCLC
[2] = tested on: U251 CNS
[3] = tested on: DMS 273 small cell lung
[4] = tested on: SN12C renal
[5] = tested on: SNB-19 CNS
[6] = tested on: LXFL 529 NSCLC
[7] = tested on: HCT-15 colon
[8] = tested on: SK-MEL-28 melanoma
[9] = tested on: OVCAR-3 ovarian
[10] = tested on: MDA-MB-231 breast

Compound | TGI [1] [µM] | TGI [2] [µM] | TGI [3] [µM] | TGI [4] [µM] | TGI [5] [µM] | TGI [6] [µM] | TGI [7] [µM] | TGI [8] [µM] | TGI [9] [µM] | GI50 [1] [µM] | GI50 [2] [µM] | GI50 [8] [µM] | GI50 [4] [µM] | GI50 [5] [µM] | GI50 [6] [µM] | GI50 [7] [µM] | GI50 [9] [µM] | GI50 [3] [µM] | GI50 [10] [µM] | TGI [10] [µM]
CS(=O)(=O)NNS(=O)(=O)c1cccc([N+](=O)[O-])c1 | > 100 | > 100 | > 100 | > 100 | > 100 | > 100 | > 100 |  |  |  |  |  |  |  |  |  |  |  |  | 
COC(=O)C1=C2CCC(=O)[C@@]2(C)C(OC(C)=O)C=CC1 (some centres not stated) | > 100 | > 100 | > 100 | > 100 |  | > 100 | 87.3 | > 100 | > 100 |  |  |  |  |  |  |  |  |  |  | 
Cc1cc(NS(=O)(=O)c2ccc(N=Nc3cc(N=Nc4ccc(S(=O)(=O)Nc5cc(C)nc(C)n5)cc4)c4c(NC(=O)C(Cl)Cl)cccc4c3OC(=O)C(Cl)Cl)cc2)nc(C)n1 (tested in a mixture with another compound) | > 100 | 32.8 | 83.9 | 37.8 | 33.6 |  | 31.7 | 52.2 | 33 |  |  |  |  |  |  |  |  |  |  | 
C/C(=C\C(C)COCc1ccccc1)[C@H](COCc1ccccc1)OCc1ccccc1 (some centres not stated) | > 100 | > 100 | > 100 | > 100 | > 100 | > 100 | > 100 | > 100 | > 100 |  |  |  |  |  |  |  |  |  |  | 
O=S(=O)(O)O.[NH-]C1CCCCC1[NH-].[Pt+2] (configuration not stated) | > 100 | > 100 |  | > 100 | > 100 | > 100 | > 100 | > 100 | > 100 | 80.4 | > 100 | > 100 | > 100 | > 100 | > 100 | 61.5 | > 100 |  |  | 
O=c1cccccc1NCCOCCNc1cccccc1=O | > 100 | > 100 | > 100 | > 100 | > 100 | > 100 | > 100 | > 100 | > 100 |  |  |  |  |  |  |  |  |  |  | 
COc1ccc(C(=O)C(c2ccc(OC)cc2)C2(O)C(=O)Nc3ccccc32)cc1 (configuration not stated) | > 100 | > 100 | > 100 | > 100 | > 100 | > 100 | > 100 | > 100 | > 100 |  |  |  |  |  |  |  |  |  |  | 
CCC[CH2][Sn]1([CH2]CCC)[O]C(=O)c2cc(I)cc(I)c2[O]1 | 8.41 | 2.1 | 2.82 | 2.96 | 2.55 | 1.33 | 2.93 |  | 2.77 | 2.72 | 0.882 |  | 1.42 | 1.27 | 0.247 | 1.28 | 1.42 | 1.28 |  | 
Cc1ccc(NC(=O)CCC(CC(=O)C(C)(C)C)=NNC(=O)C(=O)NN)cc1C | > 100 |  | > 100 | > 100 | > 100 | > 100 | > 100 | > 100 | > 100 |  |  |  |  |  |  |  |  |  |  | 
CC(=O)OC(/C=C1/C=CC(=O)O1)COC(=O)c1ccccc1 (configuration not stated) | > 31.2 | > 31.2 | > 31.2 | > 31.2 | > 31.2 | > 31.2 |  | > 31.2 | > 31.2 |  |  |  |  |  |  |  |  |  |  | 
CCOC12OC3=C(CC1CC1=C(CCC1=O)O2)C(=O)CC3 (configuration not stated) | > 100 | > 100 | > 100 | > 100 | > 100 | > 100 | > 100 |  | > 100 |  |  |  |  |  |  |  |  |  |  | 
O=c1/c(=C/c2cccc([N+](=O)[O-])c2)sc2nc3ccccc3n12 |  |  | > 100 | > 100 |  | > 100 | > 100 | > 100 |  |  |  |  |  |  |  |  |  |  |  | 
CCOc1cccc(/C=N/NC(=O)c2ccc(Nc3ccnc(C(F)(F)F)c3)cc2)c1O | > 69.1 | > 58 |  | > 100 | > 100 |  | > 100 | > 58.5 | 28 | 2.13 | 0.906 | 1.63 | 2.45 | 4.69 |  | 0.515 | 0.298 |  | 1.7 | > 100
CCOC(=O)C12CCCC1(O)N(NC(=O)c1ccccc1)C(C)=C2C(=O)OC (configuration not stated) | > 100 | > 100 | > 100 | > 100 | > 100 | > 100 | > 100 |  | > 100 |  |  |  |  |  |  |  |  |  |  | 
c1ccc(Cn2cc3c(c2-c2ccccc2)CCc2cnoc2-3)cc1 | > 100 | > 100 |  | > 100 | > 100 |  | > 100 | > 100 | 24.7 | 5.73 | 3.65 | 6.58 | 7.83 | 4.24 |  | 3.72 | 3.73 |  | 5.68 | > 100
CCN(CC)CCCC(C)Nc1cnc(C(=O)Nc2ccc(Cl)c3cccnc23)cn1 (configuration not stated) | 11.8 | 3.83 |  | 5.53 | 13.9 |  | 6.3 | 3.28 | 3.97 | 2.71 | 1.93 | 1.79 | 2.19 | 3.37 |  | 2.29 | 2.01 |  | 1.68 | 3.76
COc1ccc(C(=O)OCC2OC(n3cnc4c(=S)nc[nH]c43)C(OC(=O)c3ccc(OC)cc3)C2OC(=O)c2ccc(OC)cc2)cc1 (configuration not stated) | > 100 | > 100 | > 100 |  | > 100 | > 100 | > 100 | > 100 | > 100 |  |  |  |  |  |  |  |  |  |  | 
O=C1CC(c2ccc(N3CCOCC3)cc2)(c2ccsc2)NC(=O)C1Sc1ccccc1Cl (configuration not stated) | > 100 | > 100 |  | > 100 | > 100 |  | > 100 | > 100 | > 100 | > 100 | 19.5 | 38.4 | 10.1 | 30.3 |  | 56.7 | 67 |  | 45.9 | > 100
CC1=C(C(=O)Nc2ccc(F)c(Cl)c2)C(c2ccccc2Cl)NC(=S)N1 (configuration not stated) | > 50 | > 50 |  | 42.9 | > 50 |  | > 50 | > 50 | > 50 | 24.8 | 25.6 | > 50 | 13.3 | 40 |  | 16.2 | 39.5 |  | 19.6 | > 50
